Literature values in PubChem BioAssay AID1259409 (Chemical Carcinogenesis Research Information System (CCRIS), 2018).

Test system: rodent chemically induced tumor inhibition, incidence and multiplicity
Experiment: CCRIS tumor inhibitor studies

SMILES: O=c1oc2c(O)c(O)cc3c(=O)oc4c(O)c(O)cc1c4c23
- tumour outcome (control, treated, inhibition, significance) (Carcinogen: 7,12-DIMETHYLBENZ[A]ANTHRACENE, 57-97-6, Dose [Inhibitor]: 0, 2000 PPM IN DIET FROM 1 WK PRIOR TO CARCINOGEN TREATMENT TO 3 D POST CARCINOGEN TREATMENT (STUDY DURATION: 42 WK), Route [Inhibitor]: ORAL, Species: FISH, Strain/Sex: RAINBOW TROUT/ MALE, FEMALE, Target Tissue: Type of Lesion: STOMACH: TUMOR, Dose [Carcinogen]: 5.5 PPM IN WATER FOR 1 HR, Promoter: NONE USED): 88%, 78%, 11%, p<0.05
- tumour outcome (control, treated, inhibition, significance) (Carcinogen: 7,12-DIMETHYLBENZ[A]ANTHRACENE, 57-97-6, Dose [Inhibitor]: 0, 2000 PPM IN DIET FROM 3 WK PRIOR TO CARCINOGEN TREATMENT TO 3 D POST CARCINOGEN TREATMENT (STUDY DURATION: 42 WK), Route [Inhibitor]: ORAL, Species: FISH, Strain/Sex: RAINBOW TROUT/ MALE, FEMALE, Target Tissue: Type of Lesion: LIVER: TUMOR, Dose [Carcinogen]: 4.16 PPM IN WATER FOR 1 HR, Promoter: NONE USED): 7%, 22%, -214%, p<0.001
- tumour outcome (control, treated, inhibition, significance) (Carcinogen: 7,12-DIMETHYLBENZ[A]ANTHRACENE, 57-97-6, Dose [Inhibitor]: 0, 2000 PPM IN DIET FROM 3 WK PRIOR TO CARCINOGEN TREATMENT TO 3 D POST CARCINOGEN TREATMENT (STUDY DURATION: 42 WK), Route [Inhibitor]: ORAL, Species: FISH, Strain/Sex: RAINBOW TROUT/ MALE, FEMALE, Target Tissue: Type of Lesion: SWIM BLADDER: TUMOR, Dose [Carcinogen]: 4.16 PPM IN WATER FOR 1 HR, Promoter: NONE USED): 14%, 61%, -336%, p<0.001
- tumour outcome (control, treated, inhibition, significance) (Carcinogen: 7,12-DIMETHYLBENZ[A]ANTHRACENE, 57-97-6, Dose [Inhibitor]: O, 2000 PPM IN DIET FROM 3 WK PRIOR TO CARCINOGEN TREATMENT TO 3D POST CARCINOGEN TREATMENT (STUDY DURATION: 42 WK), Route [Inhibitor]: ORAL, Species: FISH, Strain/Sex: RAINBOW TROUT/ MALE, FEMALE, Target Tissue: Type of Lesion: STOMACH: TUMOR, Dose [Carcinogen]: 4.16 PPM IN WATER FOR 1 HR, Promoter: NONE USED): 97%, 94%, 3%, not significant
- tumour outcome (control, treated, inhibition, significance) (Carcinogen: (+/-)-1BETA,2ALPHA-DIHYDROXY-3ALPHA,4ALPHA-EPOXY-1,2,3,4-TETRAHYDROBENZO[A]PYRE NE, 78919-11-6, Dose [Inhibitor]: 0, 300 NMOL (TOTAL DOSE) APPLIED 10 MIN PRIOR TO CARCINOGEN DOSE INJECTED AS 1/7, 2/7, AND 4/7 OF THE TOTAL ON DAYS 1, 8, Route [Inhibitor]: INTRAPERITONEAL, Species: MOUSE, Strain/Sex: ICR/MALE, FEMALE, Target Tissue: Type of Lesion: LUNG: TUMOR, Dose [Carcinogen]: 50 NMOL (TOTAL DOSE) INJECTED IN DOSES OF 1/7, 2/7, AND 4/7 ON DAYS 1, 8, AND 15 OF LIFE, RESPECTIVELY, Promoter: NONE USED): 93%, 86%, 8%, not significant
- tumour outcome (control, treated, inhibition, significance) (Carcinogen: (+/-)-7BETA,8ALPHA-DIHYDROXY-9ALPHA,10ALPHA-EPOXY-7,8,9,10-TETRAHYDROBENZO[A]PYR ENE, 58917-67-2, Dose [Inhibitor]: 0, 300 NMOL (TOTAL DOSE) APPLIED 10 MIN PRIOR TO CARCINOGEN DOSE INJECTED AS 1/7, 2/7, AND 4/7 OF THE TOTAL ON DAYS 1, 8, Route [Inhibitor]: INTRAPERITONEAL, Species: MOUSE, Strain/Sex: ICR/MALE, FEMALE, Target Tissue: Type of Lesion: LUNG: TUMOR, Dose [Carcinogen]: 15 NMOL (TOTAL DOSE) INJECTED IN DOSES OF 1/7, 2/7, AND 4/7 ON DAYS 1, 8, AND 15 OF LIFE, RESPECTIVELY, Promoter: NONE USED): 86%, 76%, 12%, not significant
- tumour outcome (control, treated, inhibition, significance) (Carcinogen: (+/-)-7BETA,8ALPHA-DIHYDROXY-9ALPHA,10ALPHA-EPOXY-7,8,9,10-TETRAHYDROBENZO[A]PYR ENE, 58917-67-2, Dose [Inhibitor]: 0, 1250 NMOL IN 200 µL ACETONE:METHANOL (45:55) ONCE APPLIED 5 MIN PRIOR TO CARCINOGEN DOSE (STUDY DURATION: 21 WK), Route [Inhibitor]: DERMAL, Species: MOUSE, Strain/Sex: CD-1/FEMALE, Target Tissue: Type of Lesion: SKIN: TUMOR, Dose [Carcinogen]: 200 NMOL IN ACETONE:DMSO (90:10) ONCE, Promoter: 12-O-TETRADECANOYLPHORBOL-13-ACETATE, 16561-29-8): 62%, 50%, 19%, not significant
- tumour outcome (control, treated, inhibition, significance) (Carcinogen: (+/-)-7BETA,8ALPHA-DIHYDROXY-9ALPHA,10ALPHA-EPOXY-7,8,9,10-TETRAHYDROBENZO[A]PYR ENE, 58917-67-2, Dose [Inhibitor]: 0, 2500 NMOL IN 200 µL ACETONE:METHANOL (45:55) ONCE APPLIED 5 MIN PRIOR TO CARCINOGEN DOSE (STUDY DURATION: 21 WK), Route [Inhibitor]: DERMAL, Species: MOUSE, Strain/Sex: CD-1/FEMALE, Target Tissue: Type of Lesion: SKIN: TUMOR, Dose [Carcinogen]: 200 NMOL IN ACETONE:DMSO (90:10) ONCE, Promoter: 12-O-TETRADECANOYLPHORBOL-13-ACETATE, 16561-29-8): 62%, 43%, 31%, not significant
- tumour outcome (control, treated, inhibition, significance) (Carcinogen: (+/-)-7BETA,8ALPHA-DIHYDROXY-9ALPHA,10ALPHA-EPOXY-7,8,9,10-TETRAHYDROBENZO[A]PYR ENE, 58917-67-2, Dose [Inhibitor]: 0, 2500 NMOL IN 200 µL ACETONE:METHANOL (45:55) ONCE APPLIED 30 MIN PRIOR TO CARCINOGEN DOSE (STUDY DURATION: 21 WK), Route [Inhibitor]: DERMAL, Species: MOUSE, Strain/Sex: CD-1/FEMALE, Target Tissue: Type of Lesion: SKIN: TUMOR, Dose [Carcinogen]: 200 NMOL IN ACETONE:DMSO (90:10) ONCE, Promoter: 12-O-TETRADECANOYLPHORBOL-13-ACETATE, 16561-29-8): 53%, 33%, 38%, not significant
- tumour outcome (control, treated, inhibition, significance) (Carcinogen: (+/-)-7BETA,8ALPHA-DIHYDROXY-9ALPHA,10ALPHA-EPOXY-7,8,9,10-TETRAHYDROBENZO[A]PYR ENE, 58917-67-2, Dose [Inhibitor]: 0, 2500 NMOL IN 200 µL ACETONE:METHANOL (45:55) ONCE APPLIED 120 MIN PRIOR TO CARCINOGEN DOSE (STUDY DURATION: 21 WK), Route [Inhibitor]: DERMAL, Species: MOUSE, Strain/Sex: CD-1/FEMALE, Target Tissue: Type of Lesion: SKIN: TUMOR, Dose [Carcinogen]: 200 NMOL IN ACETONE:DMSO (90:10) ONCE, Promoter: 12-O-TETRADECANOYLPHORBOL-13-ACETATE, 16561-29-8): 63%, 43%, 32%, not significant
- tumour outcome (control, treated, inhibition, significance) (Carcinogen: AZOXYMETHANE, 25843-45-2, Dose [Inhibitor]: 0, 4000 PPM IN DIET BEGINNING PRIOR TO CARCINOGEN DOSE AND CONTINUING FOR DURATION OF STUDY (STUDY DURATION: 54 WK), Route [Inhibitor]: ORAL, Species: RAT, Strain/Sex: F344/MALE, Target Tissue: Type of Lesion: COLON: ADENOCARCINOMA, Dose [Carcinogen]: 15 MG/KG 1/WK FOR 2 WK, Promoter: NONE USED): 72%, 64%, 11%, not calculated
- tumour outcome (control, treated, inhibition, significance) (Carcinogen: AZOXYMETHANE, 25843-45-2, Dose [Inhibitor]: 0, 4000 PPM IN DIET BEGINNING PRIOR TO CARCINOGEN DOSE AND CONTINUING FOR DURATION OF STUDY (STUDY DURATION: 54 WK), Route [Inhibitor]: ORAL, Species: RAT, Strain/Sex: F344/MALE, Target Tissue: Type of Lesion: COLON: ADENOMA, Dose [Carcinogen]: 15 MG/KG 1/WK FOR 2 WK, Promoter: NONE USED): 14%, 8%, 43%, not calculated
